{"source": "paper PMC7063992", "about": "“Opossum Cathelicidins Exhibit Antimicrobial Activity Against a Broad Spectrum of Pathogens Including West Nile Virus” (Frontiers in Immunology, 2020)", "assay_type_in_all_cases": "cell-based", "key": {"[1]": {"system": "Human primary keratinocytes", "assay": "Viability of keratinocytes, XTT", "settings": "24 h, XTT", "excerpt": "The Ethics Committee of the Poitiers Hospital approved the use of human skin samples for research studies. All subjects provided written informed consent in accordance with the tenets of the Declaration of Helsinki. Normal abdominal or breast skin samples were obtained from patients undergoing plastic surgery and thoroughly washed with PBS free of calcium and magnesium (PBS; Gibco, Thermo Fisher Scientific, Waltham, MA, United States) after fat removal. The skin samples were minced into fragments of approximately 125 mm^2, using scalpel blades. Skin samples were incubated overnight at 4°C in a dispase solution (25 U/mL; Life Technologies, Carlsbad, CA, United States). Epidermal sheets were removed from the dermis, and keratinocytes were dissociated via trypsin digestion (trypsin-EDTA; Gibco) for 15 min at 37°C. The cell suspension was then filtered through a 280-μm sterile filter. DMEM (Gibco) supplemented with 10% (vol/vol) of FBS (Gibco) was added, and the suspension was centrifuged at 300 × g and 25°C for 10 min. Keratinocytes were seeded at a density of 10^7 cells in 75-cm^2 tissue culture flask in keratinocyte-serum free medium (K-SFM; Invitrogen, Carlsbad, CA, United States) supplemented with bovine pituitary extract (25 μg/mL; Invitrogen) and recombinant epidermal growth factor (EGF) (0.25 ng/mL; Invitrogen). The cultures were incubated at 37°C in a humidified atmosphere with 5% CO2 until 80% confluence and then stored frozen in liquid nitrogen until use. Finally, keratinocytes were seeded in sterile 24-well culture plates at 10^5 cells/well in K-SFM supplemented with bovine pituitary extract and EGF and cultured to 80% confluence. Cells were then starved overnight in K-SFM alone before stimulation.\nPrimary keratinocytes were cultured in 96-well plates at 4 × 10^4 cells per well in 0.1 mL K-SFM (Invitrogen) up to 80% confluence before being treated with various concentrations of ModoCath peptides for 24 h. Cell viability was assessed using the cell proliferation kit II (XTT; Roche, Basel, Switzerland) in accordance with the manufacturer’s protocol. The XTT labeling mixture was added after 24 h of incubation in the absence or presence of peptides at the indicated concentrations."}, "[2]": {"system": "Salmonella typhimurium ATCC 14028", "assay": "microbe, parasite or virus in culture", "settings": "S. typhimurium ATCC 14028; MHB, 37°C 6 h + 2 h; triplicate", "experimental": "(§1) Peptides corresponding to the predicted antimicrobial regions of ModoCath1 (ΔModoCath1, N-VKRTKRGARRGL […]-C), ModoCath5 (ΔModoCath5, N-[…]-C), ModoCath6 (ΔModoCath6, N-[…]-C) and PMAP36 (N-[…] PLGCG-C) were synthesized via solid-phase peptide synthesis and purified via high-performance liquid chromatography using a commercial service (GenScript, Piscataway Township, NJ, United States). The MIC of synthesized peptides was determined against a panel of bacteria comprising 3 gram-positive strains, Staphylococcus aureus ATCC 6538 (ATCC, Manassas, VA, United States), Bacillus cereus ATCC 10876, and Enterococcus faecalis ATCC 29212, and 3 gram-negative strains, Escherichia coli ATCC 25922, Pseudomonas aeruginosa ATCC 27853, and Salmonella typhimurium ATCC 14028. Ampicillin (Sigma Aldrich, St. Louis, MO, United States) and gentamicin sulfate (Sigma Aldrich) were used as controls for antimicrobial activity. The MIC was determined using a colorimetric method specified by the Microbial Viability Assay Kit-WST (Dojindo, Kumamoto, Japan) in accordance with the manufacturer’s protocol and the Clinical and Laboratory Standards Institute (CLSI) guidelines (2018). Briefly, four colonies of each bacterium were inoculated into 5 mL Luria-Bertani (LB) broth medium at 37°C for 4 to 6 h. The cells were washed with sterile saline (0.9% NaCl) twice and seeded in a single well of a 96-well plate at the cell density of 10^5 CFU/well. Subsequently, 180 μL/well of fresh Mueller-Hinton broth (MHB) was added to the plate. Different concentrations of each peptide and reference antibiotics were serially diluted in 10 μL of MHB and added to each well. The plate was incubated at 37°C for 6 h. Cation-adjusted MH broth (CAMHB) was used to culture E. faecalis. Subsequently, 10 μL of the coloring reagent was added, and cells were incubated at 37°C for 2 h. UV absorbance was measured for each well at 450 nm, using a microplate spectrophotometer (xMark spectrophotometer; Bio-Rad, Hercules, CA, United States). MIC values were determined when the difference in the optical density (OD) between treatments and blanks (media and coloring reagent only) decreased to < 0.05. Experiments were conducted in triplicate. […] The pH conditions were achieved by using acetic acid (Sigma Aldrich)."}, "[3]": {"system": "Enterococcus faecalis ATCC 29212", "assay": "microbe, parasite or virus in culture", "settings": "E. faecalis ATCC 29212; CAMHB, 37°C 6 h + 2 h; triplicate", "experimental": "as §1"}, "[4]": {"system": "Staphylococcus aureus ATCC 6538", "assay": "microbe, parasite or virus in culture", "settings": "S. aureus ATCC 6538; MHB, 37°C 6 h + 2 h; triplicate", "experimental": "as §1"}, "[5]": {"system": "Pseudomonas aeruginosa ATCC 27853", "assay": "microbe, parasite or virus in culture", "settings": "P. aeruginosa ATCC 27853; MHB, 37°C 6 h + 2 h; triplicate", "experimental": "as §1"}, "[6]": {"system": "Escherichia coli ATCC 25922", "assay": "microbe, parasite or virus in culture", "settings": "E. coli ATCC 25922", "experimental": "as §1"}, "[7]": {"system": "Bacillus cereus ATCC 10876", "assay": "microbe, parasite or virus in culture", "settings": "B. cereus ATCC 10876; MHB, 37°C 6 h + 2 h; triplicate", "experimental": "as §1"}, "[8]": {"settings": "Control: MHB at pH 7.5 without any additives, value in brackets"}, "[9]": {"settings": "value in brackets, MHB, 37°C 6 h + 2 h, triplicate"}}, "note": "No end group written: not given here.", "data": [{"sequence": "VKRTKRGARRGLTKVLKKIFGSIVKKAVSKGV [ΔModoCath1]", "values": [{"measurement": "Cell viability ± SD", "setting": "[1]; 8 μg/mL", "value": "97.1 ± 2.9", "unit": "%"}, {"measurement": "Cell viability ± SD", "setting": "[1]; 16 μg/mL", "value": "91.4 ± 1.6", "unit": "%"}, {"measurement": "Cell viability ± SD", "setting": "[1]; 32 μg/mL", "value": "56.2 ± 8.4", "unit": "%"}, {"measurement": "Cell viability ± SD", "setting": "[1]; 64 μg/mL", "value": "5.8 ± 3.7", "unit": "%"}, {"measurement": "MIC", "setting": "[2]", "value": "2 (0.57) μg/mL"}, {"measurement": "MIC", "setting": "[3]", "value": "2 (0.57) μg/mL"}, {"measurement": "MIC", "setting": "[4]", "value": "3 (0.85) μg/mL"}, {"measurement": "MIC", "setting": "[5]", "value": "2 (0.57) μg/mL"}, {"measurement": "MIC", "setting": "[6]; 1mM MgCl2, value in brackets", "value": 0.14, "unit": "µM"}, {"measurement": "MIC", "setting": "[6]; 2.5mM CaCl2, value in brackets", "value": 0.29, "unit": "µM"}, {"measurement": "MIC", "setting": "[6]; 4.5mM KCl, value in brackets", "value": 0.14, "unit": "µM"}, {"measurement": "MIC", "setting": "[6]; 150mM NaCl, value in brackets", "value": 0.14, "unit": "µM"}, {"measurement": "MIC", "setting": "[6]; [8]", "value": 0.21, "unit": "µM"}, {"measurement": "MIC", "setting": "[6]; pH 7, value in brackets", "value": 0.21, "unit": "µM"}, {"measurement": "MIC", "setting": "[6]; [9]", "value": 0.21, "unit": "µM"}, {"measurement": "MIC", "setting": "[7]", "value": "30 (8.5) μg/mL"}]}, {"sequence": "VRRSKRGIKVPSFVKKVLKDVVSESIS [ΔModoCath6]", "values": [{"measurement": "Cell viability ± SD", "setting": "[1]; 8 μg/mL", "value": "98.0 ± 1.6", "unit": "%"}, {"measurement": "Cell viability ± SD", "setting": "[1]; 16 μg/mL", "value": "100.3 ± 1.3", "unit": "%"}, {"measurement": "Cell viability ± SD", "setting": "[1]; 32 μg/mL", "value": "101.0 ± 2.6", "unit": "%"}, {"measurement": "Cell viability ± SD", "setting": "[1]; 64 μg/mL", "value": "89.2 ± 7.2", "unit": "%"}, {"measurement": "MIC", "setting": "[2]", "value": "> 32(10.51) μg/mL"}, {"measurement": "MIC", "setting": "[3]", "value": "> 32(10.51) μg/mL"}, {"measurement": "MIC", "setting": "[4]", "value": "> 32(10.51) μg/mL"}, {"measurement": "MIC", "setting": "[5]", "value": "> 32(10.51) μg/mL"}, {"measurement": "MIC", "setting": "[6]; MHB, 10^5 CFU/well, 37°C 6 h + 2 h with coloring reagent, OD 450 nm, triplicate", "value": "5 (1.64) μg/mL"}, {"measurement": "MIC", "setting": "[7]", "value": "> 32(10.51) μg/mL"}]}, {"sequence": "WYQLIRTFGNLIHQKYRKLLEAYRKLRD [ΔModoCath5]", "values": [{"measurement": "Cell viability ± SD", "setting": "[1]; 8 μg/mL", "value": "98.1 ± 0.6", "unit": "%"}, {"measurement": "Cell viability ± SD", "setting": "[1]; 16 μg/mL", "value": "96.2 ± 3.5", "unit": "%"}, {"measurement": "Cell viability ± SD", "setting": "[1]; 32 μg/mL", "value": "79.1 ± 13.0", "unit": "%"}, {"measurement": "Cell viability ± SD", "setting": "[1]; 64 μg/mL", "value": "48.9 ± 15.5", "unit": "%"}, {"measurement": "MIC", "setting": "[2]", "value": "> 32(8.83) μg/mL"}, {"measurement": "MIC", "setting": "[3]", "value": "2 (0.55) μg/mL"}, {"measurement": "MIC", "setting": "[4]", "value": "1.5 (0.41) μg/mL"}, {"measurement": "MIC", "setting": "[5]", "value": "> 32(8.83) μg/mL"}, {"measurement": "MIC", "setting": "[6]; 1mM MgCl2, value in brackets", "value": 2.48, "unit": "µM"}, {"measurement": "MIC", "setting": "[6]; 150mM NaCl, value in brackets", "value": 2.07, "unit": "µM"}, {"measurement": "MIC", "setting": "[6]; [8]", "value": 1.38, "unit": "µM"}, {"measurement": "MIC", "setting": "[6]; pH 6, value in brackets", "value": 0.69, "unit": "µM"}, {"measurement": "MIC", "setting": "[6]; pH 7, value in brackets", "value": 1.38, "unit": "µM"}, {"measurement": "MIC", "setting": "[6]; [9]", "value": 1.38, "unit": "µM"}, {"measurement": "MIC", "setting": "[7]", "value": "6 (1.66) μg/mL"}]}]}
